Here are results for seven molecules from publication PMC12470121, “Exploring the Novel Pancreatic Lipase-Inhibitory Peptides in Chlorella pyrenoidosa: Preparation, Purification, Identification, and Molecular Docking” (Foods, 2025).

Experiment [1] relates to pancreatic lipase (PL). The note with it: cited from earlier work. The source says:
Their mechanisms of action are closely linked to a high hydrophobic amino acid content. […] Among them, the pancreatic lipase activity of VWTP was better. […] (36.28% pan ...

The test system of experiment [2] is intracellular triglyceride accumulation. As to conditions: ref [15]; cited from earlier work. The source says: Their mechanisms of action are closely linked to a high hydrophobic amino acid content.
For experiment [3], the target named is T1, pancreatic lipase (PL) (Sus scrofa, UniProt P00591).
T1 construct: Pancreatic lipase (derived from porcine pancreas); purchased Yuanye Biotech (Shanghai, China); host or cells: porcine pancreas
T1 sequence (P00591 1-450): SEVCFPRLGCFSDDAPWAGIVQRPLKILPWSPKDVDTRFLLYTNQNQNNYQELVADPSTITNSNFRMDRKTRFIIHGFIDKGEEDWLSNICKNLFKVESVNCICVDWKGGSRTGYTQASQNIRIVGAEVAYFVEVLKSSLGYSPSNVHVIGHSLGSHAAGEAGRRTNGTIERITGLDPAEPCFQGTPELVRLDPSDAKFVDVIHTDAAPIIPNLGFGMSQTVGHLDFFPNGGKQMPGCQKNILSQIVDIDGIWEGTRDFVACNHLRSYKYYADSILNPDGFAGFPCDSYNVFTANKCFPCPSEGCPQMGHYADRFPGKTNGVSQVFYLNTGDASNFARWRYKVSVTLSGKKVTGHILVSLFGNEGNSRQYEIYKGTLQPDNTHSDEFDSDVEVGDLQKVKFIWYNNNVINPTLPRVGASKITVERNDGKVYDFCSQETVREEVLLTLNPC
Nature of the experiment: PL inhibition assay (pNPP substrate). The note with it: CPPH-I at 8 mg/mL vs orlistat at 8 µg/mL; p > 0.05. It counts as biochemical, porcine. The protocol:
To evaluate the inhibitory activity of the peptide fractions against PL, we conducted experiments according to Zhang et al.. Briefly, a mixture containing 120 μL of PL (10 mg/mL), 40 μL of peptide sample, and 80 μL of 50 mmol/L Tris-HCl buffer (pH 8.0) was incubated at 37 °C for 10 min. Then, 160 μL of 0.8 mmol/L p-nitrophenyl palmitate (pNPP) dissolved in dimethyl sulfoxide was added to initiate the reaction. After incubation at 37 °C for 20 min, the reaction was terminated by heating in a water bath at 100 °C for 5 min, followed by centrifugation to remove precipitated material. The absorbance of 200 μL of the supernatant was measured at 405 nm using a microplate reader (Infinite® 200 PRO, Tecan, Männedorf, Switzerland). For the control group, the peptide sample was replaced with an equal volume of buffer; in the blank group, the PL solution was replaced with buffer. Finally, the activity of PL was calculated using Equation (1). (1) PL activity%=[1−B−b/(A−a)]×100% where A denotes the absorbance of the control group, B the absorbance of the sample group, a the absorbance of the control blank group, and b the absorbance of the sample blank group.

Experiment [4] concerns the target T2, Pancreatic lipase (derived from porcine pancreas) (porcine) (UniProt P00591).
T2 sequence: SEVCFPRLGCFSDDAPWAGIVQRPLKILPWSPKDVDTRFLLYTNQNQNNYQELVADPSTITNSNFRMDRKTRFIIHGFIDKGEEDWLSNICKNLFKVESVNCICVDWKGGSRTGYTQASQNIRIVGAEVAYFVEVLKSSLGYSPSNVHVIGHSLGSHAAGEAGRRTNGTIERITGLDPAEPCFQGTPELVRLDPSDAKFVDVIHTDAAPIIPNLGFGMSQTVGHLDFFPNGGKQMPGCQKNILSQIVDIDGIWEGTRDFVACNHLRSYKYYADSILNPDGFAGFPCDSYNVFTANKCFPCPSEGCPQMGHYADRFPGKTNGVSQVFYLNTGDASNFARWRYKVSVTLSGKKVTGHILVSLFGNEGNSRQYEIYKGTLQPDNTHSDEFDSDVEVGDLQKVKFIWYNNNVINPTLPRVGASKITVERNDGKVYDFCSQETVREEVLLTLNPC

Turning to “SPFWNINAH [oat bran-derived peptide (literature)]”, the “Pancreatic lipase-inhibitory activity (in words)” value with pancreatic lipase (PL) [1] (oat bran-derived, ref [14]) is on record as “activity indicates its promise as an anti-obesity drug”.

With “LLVVYPWTQR [peptide isolated from Chlorella (literature)]”, the “Reduction of intracellular triglyceride accumulation (in words)” value in experiment [2] is recorded as “reducing intracellular triglyceride accumulation”. In the experiment with pancreatic lipase (PL) [1] (isolated from Chlorella, ref [15]), the “Pancreatic lipase inhibition (in words)” value is given as “demonstrated efficacy in inhibiting pancreatic lipase”.

On to `CCCCCCCCCCC[C@@H](C[C@@H]1OC(=O)[C@H]1CCCCCC)OC(=O)[C@H](CC(C)C)NC=O` [orlistat], for which the “PL-I activity compared with orlistat” value on pancreatic lipase (PL) [3] was “no significant difference between CPPH-I and orlistat”.

“FYLGYCDY [peptide derived from rice bran fat extract (literature)]”: the IC50 at pancreatic lipase (PL) [1] (peptide from rice bran, ref [13], read-out: Pancreatic lipase inhibition IC50) is 470 ± 20 nM.

Molecule IVGPF gave a PL inhibition rate at 2 mg/mL peptide (pNPP hydrolysis, absorbance at 405 nm) in experiment [4] of 7.64%.

Turning to IPYPL, the PL inhibition rate at 2 mg/mL peptide (pNPP hydrolysis, absorbance at 405 nm) in experiment [4] is 4.49%.

FLSQPF registered a PL inhibition rate at 2 mg/mL peptide (pNPP hydrolysis, absorbance at 405 nm) in experiment [4] of 11.5%.
